# Reference: a melting point compilation (Tetko et al.; mined from patent text by program, amines drawn as free bases though some values may be those of a salt)
row,Structure (SMILES),melting point [°C]
1,COC(=O)c1ccc(Cl)cc1NC(=O)CSc1ccc(O)cc1,165 to 168
2,O=C1Nc2ccc(Cl)cc2C1(O)c1ccccc1OC(F)(F)F (centres undefined),214
3,CC(=O)NC(Cc1csc2ccccc12)C(=O)CCc1cc(C(F)(F)F)cc(C(F)(F)F)c1 (centres undefined),83 to 84
4,CCOC(=O)C(=CNc1nonc1C)C(=O)c1cc(F)c(F)c(F)c1F,88 to 92
5,Fc1ccc(Nc2nc(NC3CCOCC3)nc(OCC(F)(F)F)n2)cc1Cl,190 to 191
6,COC(=O)c1cn(-c2ccc(Oc3ccc(C)cc3O)cc2)nn1,148 to 151
7,CCc1nn(CCCO)c(CC)c1Oc1cc(C#N)cc(C#N)c1,93 to 95
8,Cc1ccc(Nc2nc(-c3ccccc3)cs2)nc1,260 to 264
9,COC(=O)[C@@H]1C[C@H](C(=O)OC(C)(C)C)N(C(=O)CNC(=O)Nc2cccc(C)c2)[C@@H]1c1ccccc1 (racemic),130
10,CC1CCC2Oc3ccc(Cl)cc3C(=O)N2O1 (centres undefined),210 to 213
11,O=c1cnc2cc(C(c3cccc(Cl)c3)n3ccnc3)ccc2[nH]1 (centres undefined),253
12,Cc1ccccc1-n1ccc2c(NCCCO)nc3c(C)cccc3c21,135 to 137
13,Cn1cc(C2=C(c3c4n(c5ccccc35)CCC3(CCCC3NC(=O)OC(C)(C)C)C4)C(=O)OC2=O)c2ccccc21 (centres undefined),123 to 125
14,COCCNC(=O)COc1ccc(C(=O)CN2CCN(c3ccncc3)CC2)cc1,142 to 145
15,COC(=O)C1OC(CC(C)C)(c2ccc(Cl)cc2)OC1C(=O)OC (centres undefined),40
16,Cc1cc(-c2cc(C(F)F)n3ncc(C(=O)O)c3n2)ccc1C(F)(F)F,217
17,CC(=O)Oc1cccc2oc(C(=O)Nc3ccc(CC4SC(=O)NC4=O)cc3)cc(=O)c12 (centres undefined),257 to 260
18,CN1CCN(c2cccc3ccc(NC(=O)C(F)(F)F)cc23)CC1,159 to 160
19,Cc1c(C(F)(F)F)nn(C)c1O,148 to 151
20,CN1CC(=O)Nc2cccc(Br)c2C1=O,232 to 233
21,CCNc1nc(Nc2ccccc2)ncc1C=CC(=O)OCC,125 to 126
22,COc1cc(/C=C/C(=O)CC(=O)CC(C)(C)C)ccc1O,130 to 132
23,CCCCc1oc2ccc([N+](=O)[O-])cc2c1S(=O)(=O)c1ccc(OCCCBr)cc1,101
24,OCC1Cc2ccccc2OC1CO (centres undefined),82 to 85
25,O=C1Nc2ccccc2SC1CCCCBr (centres undefined),100

row,Structure (SMILES),melting point [°C]
1,Cc1cccc(Nc2nc(-c3cccc(C#N)c3)c(-n3cncn3)s2)n1,236 to 237
2,CN(C)CCNc1ccc([N+](=O)[O-])c2sc3ccc(O)cc3c(=O)c12,> 300
3,CCOC(=O)C(C#N)=CNc1ccc(OC)c(OC)c1,150 to 155
4,CCOc1cc(C)ccc1C1CCN(CCCCC(=O)Nc2ccc(-c3ccc(C(F)(F)F)cc3)cc2)CC1,178
5,O=c1cc(-c2ccc(Br)cc2)oc2ccccc12,177 to 179
6,CCOC(=O)/C(C)=C/CC[C@@H](C)[C@H]1CC[C@@]2(C)C3=CCC4C(C)(C)C(=O)CC[C@]4(C)C3=CC[C@]12C (some centres undefined),53 to 55
7,CN1C(=O)C(F)ON=C(c2ccccc2)c2cc(Cl)ccc21 (centres undefined),218 to 220
8,Cc1ccc(S(=O)(=O)Oc2ccc3nc(S(N)(=O)=O)sc3c2)cc1,142
9,COc1cc(CC(=O)N[C@@H](COC(=O)C(C)(C)C)Cc2ccccc2)ccc1OCCN=[N+]=[N-],77 to 80
10,CCn1c(=O)c2[nH]c(-c3ccc(S(=O)(=O)N4CCN(C)CC4)cc3)nc2n(CC)c1=O,305 to 307
11,CN(C)CCOc1ccc([C@H]2C[C@]3(C)C(=O)CC[C@H]3[C@@H]3CCc4c(ccc(O)c4Cl)[C@H]32)cc1,254
12,CCCCCc1cnc(N2CCC(c3ccc(COc4ccc(C#N)c(F)c4)nc3)CC2)nc1,92 to 94
13,O=C(Nc1ccc(-n2nc(C(F)(F)F)cc2C(F)(F)F)cc1)c1ccccc1O,173 to 175
14,O=c1c2ccc(Cl)cc2[nH]c2c(O)nn(CC#Cc3ccc(Cl)cc3)c(=O)c12,251 to 252
15,CCCC12CSC(SC1)SC2,139
16,Cc1c(C(=O)Nc2ccc(N3CCN(CCO)CC3)c(C#N)c2)cnn1-c1ccc(F)c(F)c1,164 to 165
17,CC(C)n1nc(-c2sc(C(=O)NCC(N)=O)nc2-c2ccccc2)ccc1=O,248 to 249
18,CC(C)(C)OC(=O)CONC(=O)c1ccc(C(=O)C(C)(C)C)cc1,87 to 88
19,[N-]=[N+]=NC1CC(n2cc(I)c(=O)[nH]c2=O)OC1C(O)C(c1ccccc1)(c1ccccc1)c1ccccc1 (centres undefined),80
20,O=C(NCCN1CCC(O)(c2ccc(Cl)cc2)CC1)c1ccc(F)cc1[N+](=O)[O-],144
21,Clc1cccc(CNc2n[nH]c3ncnc(Nc4cccc(Cl)c4)c23)c1,158 to 163
22,N#Cc1ccc(N(Cc2ccc(OS(N)(=O)=O)cc2)n2cnnc2)cc1-c1ccco1,177 to 178
23,Fc1ccccc1-c1nc2cccnc2s1,119 to 121
24,Cc1cccc2c(=O)c(CS(C)(=O)=O)cn(C)c12,244 to 246
